Data from US7919481B2, “Inositol pyrophosphates, and methods of use thereof” (NormOxys, Inc., priority 2002, dated 2011).
Values joined by “and” are separate entries in the source; they are usually repeats but may differ in a detail not shown here. Equal entries are not always repeated. “Also recorded” adds a separate entry of the source.

Legend:
[1] = test system: circulating RBC; assay: Oral administration in drinking water, P50 of circulating RBC; type: in vivo, C57BL/6 mice; conditions: for P50 10 d %: P50 shift on day 10, single mice
[2] = test system: RBC; assay: Blood counts of orally treated mice; type: in vivo, C57BL/6 mice; conditions: day 10, single mice; oral 27 mM for 4 days
[3] = test system: human RBCs; conditions: IHP encapsulated in human RBCs by continuous-flow electroporation; cited from earlier work
[4] = test system: RBC; assay: Blood counts of orally treated mice; type: in vivo, C57BL/6 mice; conditions: for RBC × 10^6/mm3: day 7, single mice, oral 27 mM for 4 days
Description: Blood from mice, having ingested kf111 or IHP in water (for 4 days) or water only was collected on day 0, 7 and 11, in order to assess any differences in the blood count (and the amount of erythropoietin in the sera) of treated and control mice. […] Erythropoietin assays in all mice sera will be reported soon.

[5] = constant concentration 22 mM, human serum/1-octanol; cited from earlier work
[6] = test system: porcine RBCs; assay: Intravenous injection in piglets, P50 of blood; type: in vivo, piglet; conditions: iv injection of 1 g/kg body weight; maximum
Experimental: (§1) An in vivo-experiment was performed on one 8 week-old normal piglet (body weight: 17 kg). The piglet was anaesthesized with 5% Isoflurane, 0.7 L/min N2O and 2.0 L/min O2 for 20-30 minutes, when kf111 was injected, or blood was taken from the ear vein, respectively. The compound injected iv at a concentration of 27 g kf111/100 ml water (volume injected: 63 ml, pH 6.5, containing 17 g kf111=1 g/1 kg body weight) was not harmful to the animal, when injected into the piglet's ear vein over at least 10 minutes.
(§2) Iv injection of 1 g kf111/kg body weight caused a significant right shift of the P50-value (up to 20%) in porcine RBCs. An almost saturated kf111 solution, pH 6.7, was injected intravenously into two piglets (both of ˜18 kg body weight) (27 g kf111/100 ml=1.5 g/kg body weight) over 20 minutes.

[7] = test system: mouse whole blood; assay: In vitro P50 in whole blood after incubation with effector; type: cell-based; conditions: effector 60 mM
Experimental: (§3) As usual, pH's for the compound-solutions were adjusted to ˜7.0, osmolarities for both solutions were determined (325-373 mOsM) prior to effectors, and whole blood volumes at 1:1 ratios were incubated.

[8] = test system: human whole blood; assay: as above; type: cell-based; conditions: effector 60 mM
Experimental: as §3

[9] = test system: pig whole blood; assay: as above; type: cell-based; conditions: effector 60 mM
Experimental: as §3

[10] = Toxicity, general statements on the biological experiments; type: in vivo
[11] = Blood counts and serum electrolytes of iv treated piglets; type: in vivo, piglet
Description: Blood from the 2 piglets, having received kf111 (1 g/kg body weight) was collected before injection, 2 hrs after, and daily over a period of 14 days after injection, in order to assess any differences in the blood counts of treated and non treated piglets. The following conclusions for piglets having received 1 g kf111 per kg body weight can be drawn: • 1. […] Increasing numbers of reticulocytes were counted in blood samples of the injected animals taken 5-14 days after injection (up to 3.0% on day 14). • 4.
Blood was taken from the heart of the dead animals for the determination of blood counts as well as the amount of sodium, potassium and calcium in the sera. All numbers of blood cells (hematocrit, white blood cells etc.) were halved. The amount of potassium and calcium was normal, while sodium was doubled (before injection: 120-140 mmol/L; after injection: 245 mmol/L). Apparently, the large amount of sodium in kf111 (6 Na^+/molecule) caused the death of the animals. It appears that up to 1 g kf111 per kg body weight can be injected iv, (if injected slowly) without harmful effects for the animals. […] The piglets were thirsty after the treatment. *a second piglets was injected with kf111 at this concentration, after 2 piglets had died after iv injection of 1.2 g kf111 (or even more) per kg body weight. • 2. Higher amounts of kf111, injected via iv, killed the animals. • 3. A 1 g kf111 per kg body weight—injection is necessary to cause a significant right shift of the P50 value (up to 20%). • 4. […] In piglets having received 1 g of kf111/kg body weight, a tendency to the decrease in hematocrit was observed. • 6. […] The number of reticulocytes decreased slightly 24 to 72 hrs after injection (from 1.5% to 0.5%). Starting with day 3 after injection of the allosteric effector, the number of reticulocytes increased by about 3% for a period of 14 days.

[12] = test system: circulating RBC; assay: P50 shift of circulating RBC after (intraperitoneal) injection in mice; conditions: for P50 Shift % 2 h, Mean +/− SD / P50 Shift % 24 h, Mean +/− SD: 5 animals; for P50 Shift % 2 h / P50 Shift % 24 h: single animals
[13] = test system: C57BL/6 mice; assay: Tolerability of oral administration; type: in vivo; conditions: 27 mM in drinking water, 4 days
Experimental: The sodium salt of the tri-pyrophosphate derivative of IHP (kf111) was dissolved in drinking (not deionized) water at a 20 g/L-concentration (=27 mM) and offered for drinking ad libitum. As in all experiments performed before, pH was adjusted to ˜7.0.
Twelve C57BL/6 mice drank kf111 over 4 days ([…]). Three control mice drank either pure water, or a solution of IHP (inositol hexaphosphate) at the same concentration and pH as kf111 (4 mice). […] Blood was collected from the tail vein of the 19 C57BL/6 mice on day 0 (before treatment started), 1, 2, 4, 6, 7, 8, 10, 11 and 12, in order to measure P50 values.

[14] = test system: whole blood; assay: In vitro incubation of whole blood of three species, summary statements; type: cell-based, human, mouse and pig
Experimental: as §3

[15] = test system: piglets; assay: Tolerability / lethality of iv injection in piglets; type: in vivo, piglet
Experimental: as §1, §2

[16] = test system: C57BL/6 mice; assay: Tolerability of intraperitoneal injection in mice; type: in vivo
[17] = dead piglets after lethal iv dose

With `O=P(O)(O)O[C@H]1[C@H](OP(=O)(O)O)[C@@H](OP(=O)(O)O)[C@H](OP(=O)(O)O)[C@@H](OP(=O)(O)O)[C@H]1OP(=O)(O)O` [IHP, inositol hexaphosphate, reference compound] the “P50 7 d %” value ([1]; P50 shift on day 7, single mice, oral 27 mM for 4 days) was 3%, the “P50 10 d %” value ([1]; oral 27 mM for 4 days) was 0% and the “shift of the ODC” value ([1]; oral in drinking water, same concentration as kf111) was “absence of shift”. The “RBC × 10^6/mm3” value [2] was 10.77 × 10^6/mm3, the “P50 of IHP-modified RBCs” value [3] was “approximately 50 torr” and the “RBC × 10^6/mm3” value [4] was 9.6 × 10^6/mm3. For the same compound, the “equiv of ammonium ions required to reach Kos(in serum) of 1” value [5] was 8 equiv.
With `O=P1([O-])OP(=O)([O-])O[C@H]2[C@H](O1)[C@@H]1OP(=O)([O-])OP(=O)([O-])O[C@@H]1[C@H]1OP(=O)([O-])OP(=O)([O-])O[C@H]21.[Na+].[Na+].[Na+].[Na+].[Na+].[Na+]` [kf111, Hexasodium Salt of Myo-inositol 1,6:2,3:4,5-Tripyrophosphate] the “right shift of the P50-value” [6] was “up to 20%”, the “P50 10 d %” value ([1]; oral 27 mM for 4 days) was 10% and 6% and 12% and 16% and 8% and 11% and 9% and the “right shift of P50” value ([1]; oral, 20 g/L (27 mM) in drinking water over 4 days, maximum) was “up to 31%”. For the same compound, the “P50 Increase %” value ([7]; 1:1) was 29%, the “P50 mm Hg” value ([7]; 1:1, control 36.7) was 47.4 mm Hg and the “P50 Increase %” value ([8]; 1:1) was 39%. For the same compound, the “P50 mm Hg” value ([8]; 1:1, control 22.1) was 30.8 mm Hg, the “P50 Increase %” value ([9]; 1:1) was 40% and the “P50 mm Hg” value ([9]; 1:1, control 32.2) was 45.2 mm Hg. The toxicity ([10]; even in a concentration of 160 mM) was “no toxicity”, the toxicity / tolerability ([10]; general statement) was “no toxicity and excellent tolerability” and the “number of other cells such as white blood cells” value ([11]; 1 g/kg iv) was “no major differences”. For the same compound, the reticulocytes ([11]; 1 g/kg iv, day 14 (samples 5-14 days after injection), maximum) was “up to 3.0%”, the reticulocytes after decrease ([11]; 1 g/kg iv, first 3 days (24 to 72 hrs) after injection) was 0.5% and the “hematocrit and number of RBC” value ([11]; 1 g/kg iv, first days after injection) was “slight decrease”. For the same compound, the “increase of the number of reticulocytes” value ([11]; 1 g/kg iv, starting with day 3, for a period of 14 days) was “about 3%”, the “amount of potassium and calcium in sera” value [11, 17] was “normal” and the “numbers of blood cells (hematocrit, white blood cells etc.)” value [11, 17] was “halved”. For the same compound, the “sodium in sera after injection” value ([11]; dead piglets, before injection 120-140 mmol/L) was 245 mmol/L, the “RBC × 10^6/mm3” value [2] was 9.35 × 10^6/mm3 and 8.60 × 10^6/mm3 and 8.95 × 10^6/mm3 and 8.88 × 10^6/mm3 and 8.70 × 10^6/mm3 and 8.73 × 10^6/mm3 and 7.65 × 10^6/mm3 and 7.80 × 10^6/mm3 and the “right shift of the ODC of circulating RBC, % of the basal value” ([12]; after ip injection) was 31%. For the same compound, the “P50 Shift % 2 h, Mean +/− SD” value ([12]; ip 45 mM) was 11.8 +/− 1.16%, the “P50 Shift % 2 h” value ([12]; ip 45 mM) was 13% (2×) and 10% and 12% and 11% and the “P50 Shift % 24 h, Mean +/− SD” value ([12]; ip 45 mM) was 13.6 +/− 1.02%. For the same compound, the “P50 Shift % 24 h” value ([12]; ip 45 mM) was 14% (2×) and 12% and 13% and 15%, the “P50 Shift % 2 h, Mean +/− SD” value ([12]; ip 60 mM) was 16.9 +/− 3.48% and the “P50 Shift % 2 h” value ([12]; ip 60 mM) was 12% and 14% and 17% and 21% and 20.5%. For the same compound, the “P50 Shift % 24 h, Mean +/− SD” value ([12]; ip 60 mM) was 17.2 +/− 2.1%, the “P50 Shift % 24 h” value ([12]; ip 60 mM) was 14% and 16% and 17% and 20% and 19% and the “P50 Shift % 2 h, Mean +/− SD” value ([12]; ip 120 mM) was 26.0 +/− 2.28%. The “P50 Shift % 2 h” value ([12]; ip 120 mM) was 28% and 29% and 24% and 26% and 23%, the “P50 Shift % 24 h, Mean +/− SD” value ([12]; ip 120 mM) was 24.8 +/− 2.7% and the “P50 Shift % 24 h” value ([12]; ip 120 mM) was 28% (2×) and 22% (2×) and 24%. The “P50 Shift % 2 h, Mean +/− SD” value ([12]; ip 150 mM) was 27.0 +/− 1.78%, the “P50 Shift % 2 h” value ([12]; ip 150 mM) was 26% (2×) and 28% and 30% and 25% and the “P50 Shift % 24 h, Mean +/− SD” value ([12]; ip 150 mM) was 25.8 +/− 2.78%. For the same compound, the “P50 Shift % 24 h” value ([12]; ip 150 mM) was 25% and 26% and 31% and 24% and 23%, the “harmfulness when applied orally” value [13] was “not harmful” and the “RBC × 10^6/mm3” value [4] was 6.60 × 10^6/mm3 and 5.73 × 10^6/mm3 and 6.35 × 10^6/mm3 and 5.64 × 10^6/mm3 and 5.45 × 10^6/mm3 and 8.76 × 10^6/mm3 and 7.70 × 10^6/mm3 and 6.54 × 10^6/mm3. The “number of RBC” value ([4]; mice having ingested the compound for 4 days) was “reduced significantly”, the “number of white blood cells” value ([4]; treated vs control groups) was “no major differences” and the “lysis of RBCs” value ([14]; in vitro incubation with whole blood) was “never occurred; also recorded: no lysis of RBCs was observed”. The “right shift in the Hb-O2 dissociation curve, all blood samples” value ([14]; whole blood of human, mouse and pig, 60 mM) was “up to 40%”, the “harmfulness of iv injection” value ([15]; 1 g/kg body weight, injected slowly (at least 10 min)) was “not harmful” and the “outcome of iv injection of almost saturated solution” value ([15]; 27 g/100 ml, 1.5 g/kg planned over 20 minutes, two piglets) was “Both piglets died”. The “dose that can be injected iv without harmful effects” value ([15]; if injected slowly) was “up to 1 g kf111 per kg body weight”, the “dose received at which piglets died” value ([15]; iv, saturated solution) was less than 1.3 g/kg body weight and the tolerability in mice ([16]; concentration of (up to) 120 mM) was “well tolerated”. The tolerability in mice ([16]; ip, concentrations up to 150 mM) was “well tolerated”.
